Experimental data from ChEMBL document CHEMBL1201862, “PubChem BioAssay data set” (2004).
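Growth conditions: 96-well plates. Treatment: test compound, 48 hours, 5 concentrations. Analysis: linear interpolation between bracketing concentrations; unreached endpoints set to highest concentration. GI50 marks 50% less growth.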 Active and inactive are the calls of the source. Rule as the data show it: active = GI50 up to about 1.1 µM and inactive = higher.

Columns and labels:
Experiment in all cases: NCI-60 cell line screen, 48 h
[1] = test system: A549
[2] = test system: ACHN
[3] = test system: CCRF-CEM
[4] = test system: HL-60
[5] = test system: HOP-62
[6] = test system: HT-29
[7] = test system: K562
[8] = test system: LOX IMVI
[9] = test system: NCI-H23
[10] = test system: NCI-H522
[11] = test system: OVCAR-4
[12] = test system: RPMI-8226
[13] = test system: SF-295
[14] = test system: SK-MEL-2
[15] = test system: SNB-75
[16] = test system: SW-620
[17] = test system: U-251
[18] = test system: Malme-3M
[19] = test system: SF-539
[20] = test system: RXF 393

SMILES	GI50 [1]	GI50 [2]	GI50 [3]	GI50 [4]	GI50 [5]	GI50 [6]	GI50 [7]	GI50 [8]	GI50 [9]	GI50 [10]	GI50 [11]	GI50 [12]	GI50 [13]	GI50 [14]	GI50 [15]	GI50 [16]	GI50 [17]	GI50 [18]	GI50 [19]	GI50 [20]
CCOP(=O)(OCC)C(Cc1c[nH]c2ccccc12)C(=O)O (stereo not given)	> 100 µM (inactive)	> 100 µM (inactive)	> 100 µM (inactive)	> 100 µM (inactive)	> 100 µM (inactive)	> 100 µM (inactive)	> 100 µM (inactive)	> 100 µM (inactive)	> 100 µM (inactive)	> 100 µM (inactive)	> 100 µM (inactive)	> 100 µM (inactive)	> 100 µM (inactive)	> 100 µM (inactive)	> 100 µM (inactive)	> 100 µM (inactive)	> 100 µM (inactive)	–	–	–
CC(NC(=O)c1ccc(OP(=O)(OCC2=CC(=O)c3ccccc3C2=O)N(C)CCCCCl)cc1)c1ccc(OCC2CCCCC2)c(C(N)=O)c1 (stereo not given)	1.67 µM (inactive)	12.7 µM (inactive)	7.71 µM (inactive)	14.5 µM (inactive)	18 µM (inactive)	15.1 µM (inactive)	17.4 µM (inactive)	4.27 µM (inactive)	2.7 µM (inactive)	11.8 µM (inactive)	–	11.2 µM (inactive)	5.06 µM (inactive)	14.8 µM (inactive)	0.0122 µM (active)	12.4 µM (inactive)	10.6 µM (inactive)	1.88 µM (inactive)	15.2 µM (inactive)	–
COc1ccc(CCC2NCCc3cc(OC)c(OC)cc32)cc1 (stereo not given)	> 100 µM (inactive)	> 100 µM (inactive)	> 100 µM (inactive)	–	> 100 µM (inactive)	> 100 µM (inactive)	> 100 µM (inactive)	–	> 100 µM (inactive)	> 100 µM (inactive)	25.3 µM (inactive)	> 100 µM (inactive)	> 100 µM (inactive)	> 100 µM (inactive)	> 100 µM (inactive)	> 100 µM (inactive)	> 100 µM (inactive)	> 100 µM (inactive)	> 100 µM (inactive)	–
O=C1CSC(c2ccc(Cl)cc2Cl)N1c1ccc(Oc2ccc(Cl)cc2)c(Cl)c1 (stereo not given)	27 µM (inactive)	35.7 µM (inactive)	13.5 µM (inactive)	16.4 µM (inactive)	23.8 µM (inactive)	16.4 µM (inactive)	26.2 µM (inactive)	16.7 µM (inactive)	27 µM (inactive)	10.4 µM (inactive)	23.8 µM (inactive)	13.8 µM (inactive)	22 µM (inactive)	22.4 µM (inactive)	20.7 µM (inactive)	36.5 µM (inactive)	31.8 µM (inactive)	16.9 µM (inactive)	21.6 µM (inactive)	–
CC(=O)OCCCCn1cnc2c(Cl)nc(Nc3ccccc3)nc21	> 100 µM (inactive)	> 100 µM (inactive)	> 100 µM (inactive)	> 100 µM (inactive)	> 100 µM (inactive)	> 100 µM (inactive)	> 100 µM (inactive)	> 100 µM (inactive)	54.7 µM (inactive)	16.5 µM (inactive)	> 100 µM (inactive)	> 100 µM (inactive)	> 100 µM (inactive)	–	–	> 100 µM (inactive)	> 100 µM (inactive)	> 100 µM (inactive)	> 100 µM (inactive)	–
N#CN=C(N(Cc1ccccc1)Cc1ccccc1)N(Cc1ccccc1)Cc1ccccc1	6.44 µM (inactive)	4.53 µM (inactive)	5.73 µM (inactive)	5.14 µM (inactive)	> 100 µM (inactive)	6.22 µM (inactive)	4.36 µM (inactive)	20.4 µM (inactive)	–	4.69 µM (inactive)	–	3.88 µM (inactive)	> 100 µM (inactive)	12 µM (inactive)	95.7 µM (inactive)	9.82 µM (inactive)	–	36.7 µM (inactive)	46.7 µM (inactive)	–
Cc1c2c(n(CCN(C)C)c1C)NN=C(C#N)S2(=O)=O	> 100 µM (inactive)	> 100 µM (inactive)	–	–	> 100 µM (inactive)	> 100 µM (inactive)	> 100 µM (inactive)	> 100 µM (inactive)	> 100 µM (inactive)	–	> 100 µM (inactive)	> 100 µM (inactive)	–	> 100 µM (inactive)	> 100 µM (inactive)	> 100 µM (inactive)	> 100 µM (inactive)	> 100 µM (inactive)	> 100 µM (inactive)	–
CC1=C2c3c(C)ccc4ccc(C)c(c34)C2(O)C(C)C1=O (stereo not given)	40.3 µM (inactive)	73.6 µM (inactive)	–	28.2 µM (inactive)	79.1 µM (inactive)	> 100 µM (inactive)	49.5 µM (inactive)	45.4 µM (inactive)	–	47.2 µM (inactive)	65 µM (inactive)	33 µM (inactive)	–	> 100 µM (inactive)	30.8 µM (inactive)	> 100 µM (inactive)	> 100 µM (inactive)	–	> 100 µM (inactive)	–
CCN(CC)c1ccc2cc(C(=O)Nc3nc(C45CC6CC(CC(C6)C4)C5)cs3)c(=O)oc2c1	> 100 µM (inactive)	> 100 µM (inactive)	> 100 µM (inactive)	> 100 µM (inactive)	> 100 µM (inactive)	> 100 µM (inactive)	> 100 µM (inactive)	> 100 µM (inactive)	> 100 µM (inactive)	> 100 µM (inactive)	> 100 µM (inactive)	> 100 µM (inactive)	> 100 µM (inactive)	–	–	> 100 µM (inactive)	> 100 µM (inactive)	> 100 µM (inactive)	> 100 µM (inactive)	> 100 µM (inactive)
COc1ccc(-c2c3c([nH]c(=S)c2C#N)CC(C)(C)CC3=O)cc1	> 100 µM (inactive)	> 100 µM (inactive)	56.2 µM (inactive)	> 100 µM (inactive)	> 100 µM (inactive)	> 100 µM (inactive)	61.7 µM (inactive)	> 100 µM (inactive)	> 100 µM (inactive)	36.4 µM (inactive)	> 100 µM (inactive)	> 100 µM (inactive)	> 100 µM (inactive)	> 100 µM (inactive)	–	> 100 µM (inactive)	> 100 µM (inactive)	> 100 µM (inactive)	> 100 µM (inactive)	> 100 µM (inactive)
O=c1cc(NNc2ccccc2)[nH]c(=O)[nH]1	> 100 µM (inactive)	13.3 µM (inactive)	27.5 µM (inactive)	18.2 µM (inactive)	85.3 µM (inactive)	22.1 µM (inactive)	24.1 µM (inactive)	19.8 µM (inactive)	56.8 µM (inactive)	20.5 µM (inactive)	16 µM (inactive)	11.1 µM (inactive)	37.9 µM (inactive)	–	–	> 10 µM (inactive)	16.1 µM (inactive)	19.8 µM (inactive)	71.6 µM (inactive)	–
CC(C)(/N=N/C(C)(C)C(=O)NCCO)C(=O)NCCO	> 100 µM (inactive)	> 100 µM (inactive)	> 100 µM (inactive)	> 100 µM (inactive)	> 100 µM (inactive)	> 100 µM (inactive)	> 100 µM (inactive)	> 100 µM (inactive)	> 100 µM (inactive)	39.7 µM (inactive)	> 100 µM (inactive)	> 100 µM (inactive)	> 100 µM (inactive)	> 100 µM (inactive)	–	> 100 µM (inactive)	> 100 µM (inactive)	> 100 µM (inactive)	> 100 µM (inactive)	> 100 µM (inactive)
COC1CC(=O)C2C(=O)N(c3ccccc3)C(=O)C23C(C(=O)c2ccccc2)=C(C)NC13O (stereo not given)	34.4 µM (inactive)	12.9 µM (inactive)	3.69 µM (inactive)	–	20.2 µM (inactive)	16.9 µM (inactive)	< 0.01 µM (active)	13.4 µM (inactive)	15.3 µM (inactive)	1.91 µM (inactive)	4.92 µM (inactive)	5.08 µM (inactive)	32.4 µM (inactive)	17.1 µM (inactive)	–	5.02 µM (inactive)	17.3 µM (inactive)	1.43 µM (inactive)	5.32 µM (inactive)	–
COC(=O)C1CCC(=O)N1C(c1ccc2c(c1)OCO2)c1cc(OC)c(OC)c(OC)c1 (stereo not given)	> 100 µM (inactive)	> 100 µM (inactive)	> 100 µM (inactive)	> 100 µM (inactive)	> 100 µM (inactive)	> 100 µM (inactive)	> 100 µM (inactive)	> 100 µM (inactive)	> 100 µM (inactive)	6.35 µM (inactive)	> 100 µM (inactive)	> 100 µM (inactive)	> 100 µM (inactive)	> 100 µM (inactive)	> 100 µM (inactive)	> 100 µM (inactive)	> 100 µM (inactive)	> 100 µM (inactive)	> 100 µM (inactive)	–
O=C1OC(c2ccc(O)cc2)(c2ccc(O)cc2)c2ccc(Cl)c3cccc1c23.O=C1OC(c2ccc(O)cc2)(c2ccc(O)cc2)c2cccc3c(Cl)ccc1c23	18.8 µM (inactive)	13.9 µM (inactive)	15.5 µM (inactive)	–	3.94 µM (inactive)	12.2 µM (inactive)	21.2 µM (inactive)	10.9 µM (inactive)	11.1 µM (inactive)	–	0.0384 µM (active)	12.5 µM (inactive)	12.2 µM (inactive)	12.6 µM (inactive)	–	14.9 µM (inactive)	11.9 µM (inactive)	9.55 µM (inactive)	10.7 µM (inactive)	10.8 µM (inactive)
